In ChEMBL document CHEMBL5257144, “Novel Serine-Arginine Protein Kinase Inhibitors for Treating Cancer” (ACS Med Chem Lett, 2023):
pIC50: −log10 of the molar value.

Target: SRSF protein kinase 1 (Homo sapiens, UniProt Q96SB4)
Experiment: Inhibition of SRPK1 (unknown origin) using RS peptide as substrate incubated for 120 mins in the presence 33P-ATP

SRSF protein kinase 1, sequence (Q96SB4 whole entry): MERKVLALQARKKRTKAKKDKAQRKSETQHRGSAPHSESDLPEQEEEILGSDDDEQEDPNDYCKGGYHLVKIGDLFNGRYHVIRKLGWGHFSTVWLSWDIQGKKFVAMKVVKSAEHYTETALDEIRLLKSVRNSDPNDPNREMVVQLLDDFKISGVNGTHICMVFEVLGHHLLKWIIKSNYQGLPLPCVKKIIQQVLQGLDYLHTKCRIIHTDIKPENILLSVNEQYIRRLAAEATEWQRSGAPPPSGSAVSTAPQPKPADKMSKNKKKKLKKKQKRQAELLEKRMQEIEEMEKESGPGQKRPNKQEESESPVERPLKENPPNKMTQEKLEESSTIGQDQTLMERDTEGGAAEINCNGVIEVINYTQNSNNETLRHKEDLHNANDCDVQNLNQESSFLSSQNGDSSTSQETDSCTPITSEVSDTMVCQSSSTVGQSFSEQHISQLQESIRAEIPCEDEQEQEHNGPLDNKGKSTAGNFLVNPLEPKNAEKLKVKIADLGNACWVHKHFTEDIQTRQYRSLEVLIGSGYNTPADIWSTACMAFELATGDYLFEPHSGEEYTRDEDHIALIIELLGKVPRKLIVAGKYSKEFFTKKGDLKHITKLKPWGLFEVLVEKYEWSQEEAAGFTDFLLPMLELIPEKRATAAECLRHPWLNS

Question: `CN(c1ncccc1CNc1cnc(-c2nc3cc(Cl)cc(F)c3[nH]2)nc1)S(C)(=O)=O` was tested. Which pIC50 did it give?
Answer: The pIC50 was over 7.30.

Question: `CN(c1ncccc1CNc1cnc(-c2nc3cc(F)cc(F)c3[nH]2)nc1)S(C)(=O)=O` was tested. Which pIC50 did it give?
Answer: The pIC50 was over 7.30.

Question: `CN(c1ncccc1CNc1cnc(-c2nc3cc(-c4cnn(C)c4)ccc3[nH]2)nc1)S(C)(=O)=O` was tested. Which pIC50 did it give?
Answer: Its pIC50 is over 7.30.

Question: How did the pIC50 turn out when `CC(C)c1ccc2[nH]c(-c3ncc(NCc4cccnc4N(C)S(C)(=O)=O)cn3)nc2c1` was run?
Answer: The pIC50 was over 7.30.

Question: `Cc1ccc2nc(-c3ncc(NCc4cccnc4N(C)S(C)(=O)=O)cn3)[nH]c2c1` was tested. Which pIC50 did it give?
Answer: Its pIC50 is over 7.30.

Question: `CN(c1ncccc1CNc1ccc(-c2nc3cc(Cl)ccc3[nH]2)nc1)S(C)(=O)=O` was tested. Which pIC50 did it give?
Answer: Its pIC50 is over 7.30.
